Measured values taken from PubChem BioAssay AID1963853 (Molecular Pharmacology Branch, DTP, NCI, 2024).

System: 266295-075-R-J1-PDC spheroid viability
Experiment: Anticancer human tumor 266295-075-R-J1-PDC patient-derived head and neck squamous carcinoma cell line growth inhibition [POLQ]
Settings: spheroids with HUVEC and MSC; for IC50: curve of first compound; for viability, T/C: stronger effect = lower value
Outline: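 Complex spheroid viability model combining PDC tumour cells with endothelial (HUVEC) and MSC stromal cells. Novobiocin, ART-558 or RP6685 were tested singly and in combination with standard and investigational anticancer drugs. Each was titrated in half-log steps from near clinical Cmax, or from 10 microM where Cmax was unknown.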
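Further: spheroids exposed to compounds for seven days before readout.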

CC1COCCN1c1cc(C2(O)CC3CCC(C2)O3)c2cnn(-c3ccn[nH]3)c2n1 (configuration not stated) + Nc1ccc(C#CCN(C(=O)Cc2ncc(C(F)(F)F)cc2C(F)(F)F)c2ccc(F)cc2)nn1
IC50 (second compound 0.0316 µM): 996 nM
IC50 (second compound 0.1 µM): 591 nM
IC50 (second compound 0.316 µM): 324 nM
IC50 (second compound 1 µM): 903 nM
IC50 (second compound 3.16 µM): 831 nM
IC50 (second compound 10 µM): 706 nM
viability, T/C (second compound 0.0316 µM, first compound 0.0316 µM): 80.4%
viability, T/C (second compound 0.0316 µM, first compound 0.1 µM): 112%
viability, T/C (second compound 0.0316 µM, first compound 0.316 µM): 67.6%
viability, T/C (second compound 0.0316 µM, first compound 1 µM): 54.4%
viability, T/C (second compound 0.0316 µM, first compound 3.16 µM): 42.5%
viability, T/C (second compound 0.0316 µM, first compound 10 µM): 32.3%
viability, T/C (second compound 0.1 µM, first compound 0.0316 µM): 96.9%
viability, T/C (second compound 0.1 µM, first compound 0.1 µM): 85.9%
viability, T/C (second compound 0.1 µM, first compound 0.316 µM): 53.5%
viability, T/C (second compound 0.1 µM, first compound 1 µM): 46.6%
viability, T/C (second compound 0.1 µM, first compound 3.16 µM): 39.2%
viability, T/C (second compound 0.1 µM, first compound 10 µM): 29.9%
viability, T/C (second compound 0.316 µM, first compound 0.0316 µM): 94.9%
viability, T/C (second compound 0.316 µM, first compound 0.1 µM): 100%
viability, T/C (second compound 0.316 µM, first compound 0.316 µM): 50.2%
viability, T/C (second compound 0.316 µM, first compound 1 µM): 51.2%
viability, T/C (second compound 0.316 µM, first compound 3.16 µM): 38.3%
viability, T/C (second compound 0.316 µM, first compound 10 µM): 26.9%
viability, T/C (second compound 1 µM, first compound 0.0316 µM): 86.2%
viability, T/C (second compound 1 µM, first compound 0.1 µM): 66.3%
viability, T/C (second compound 1 µM, first compound 0.316 µM): 63.1%
viability, T/C (second compound 1 µM, first compound 1 µM): 46.9%
viability, T/C (second compound 1 µM, first compound 3.16 µM): 42.5%
viability, T/C (second compound 1 µM, first compound 10 µM): 25.7%
viability, T/C (second compound 3.16 µM, first compound 0.0316 µM): 83.9%
viability, T/C (second compound 3.16 µM, first compound 0.1 µM): 84.1%
viability, T/C (second compound 3.16 µM, first compound 0.316 µM): 63.7%
viability, T/C (second compound 3.16 µM, first compound 1 µM): 46.8%
viability, T/C (second compound 3.16 µM, first compound 3.16 µM): 36.8%
viability, T/C (second compound 3.16 µM, first compound 10 µM): 27.8%
viability, T/C (second compound 10 µM, first compound 0.0316 µM): 78.4%
viability, T/C (second compound 10 µM, first compound 0.1 µM): 75.7%
viability, T/C (second compound 10 µM, first compound 0.316 µM): 69.8%
viability, T/C (second compound 10 µM, first compound 1 µM): 41.2%
viability, T/C (second compound 10 µM, first compound 3.16 µM): 30.2%
viability, T/C (second compound 10 µM, first compound 10 µM): 26.7%
